We go through 5 molecules from US20260297542A1, “HERBICIDE RESISTANT PLANTS” (SYNGENTA CROP PROTECTION AG, priority 2023, published 2026).

For assay [1], the target named is T1, AtPPO1 S305L Y361C L362F Y426M L479M (SEQ ID NO.134) (Arabidopsis thaliana, UniProt P55826, L479M/S305L/Y361C/Y362F/Y426M).
T1 sequence (P55826 35-537 S305L/Y361C/Y362F/Y426M/L479M): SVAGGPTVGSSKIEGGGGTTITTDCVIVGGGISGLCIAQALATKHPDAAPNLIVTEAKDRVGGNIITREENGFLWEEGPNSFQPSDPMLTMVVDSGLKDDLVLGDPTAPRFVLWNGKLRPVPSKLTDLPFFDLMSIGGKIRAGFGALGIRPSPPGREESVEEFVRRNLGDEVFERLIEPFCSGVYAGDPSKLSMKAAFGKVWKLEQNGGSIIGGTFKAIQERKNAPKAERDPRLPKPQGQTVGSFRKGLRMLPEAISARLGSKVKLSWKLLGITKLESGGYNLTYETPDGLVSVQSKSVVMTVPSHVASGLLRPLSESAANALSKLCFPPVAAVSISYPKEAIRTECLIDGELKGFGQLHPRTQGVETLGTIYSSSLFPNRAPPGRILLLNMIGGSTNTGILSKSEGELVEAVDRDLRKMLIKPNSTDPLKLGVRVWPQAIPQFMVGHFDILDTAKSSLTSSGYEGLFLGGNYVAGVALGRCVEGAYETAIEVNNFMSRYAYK
In words: fluorescent Protoporphyrinogen Oxidase assay, crude extract. The note with it: read-out: percentage inhibition. The assay is classed as biochemical. On the procedure:
(§1) A pET24 plasmid containing a DNA sequence encoding each identified variant mutant of AtPPO1 derived from Arabidopsis thaliana, codon-optimised for expression in E. coli, and under control of a T7 promoter, was synthesised by Twist Bioscience. This plasmid was expressed in E. coli BL21 (DE3) hemG with 50 μg/mL kanamycin and 25 μg/mL chloramphenicol selection. Overnight cultures grown at 37° C. were used to inoculate 150 ml AIM (AIM-Terrific Broth Base including Trace elements, Formedium) in 500 ml shake flasks at a ratio of 1:100. Cultures were grown at 37° C., 200 rpm for 3 hours and then overnight at 26° C. Cells were harvested by 4° C. centrifugation for 20 minutes at 600 rpm. Cells were stored at −80° C. until extraction. 0.5-1 g of cell pellet from was thawed and resuspended in ratio of 1:1 in lysis buffer (20 mM Tris pH8, 500 mM sodium chloride, 10% glycerol, 1× complete Protease EDTA-free Inhibitor Tablet (Roche)). The resuspension was sonicated at 50% using 10-20 cycles of 10 seconds, 20 seconds off. After sonication Triton X-100 was added to the lysates at a final concentration of 0.5%. The lysates were centrifuged at 13.00 rpm for 10 min at 4° C. The crude extracts (i.e, supernatants) were stored at −80° C. Protein concentration was measured and calculated using the absorbance at 280 nm. Extracts were diluted 1 in 4 and 10 uL was analysed by SDS PAGE.
(§2) Variant crude extracts were assayed in a fluorescent Protoporphyrinogen Oxidase assay in black 384 well plates with a clear bottom. The total volume of the reaction mixture was 100 ul and contained 100 mM K2HPO4 pH7.2, 1 mM Na2EDTA, 5 mM DTT, 20% glycerol (v/v), 0.025% Tween 20 (v/v). Reactions were started with addition of 1 uM protoporphyrinogen IX final assay concentration. Fluorescence was monitored over 30 min using a Tecan plate reader with an excitation wavelength of 405 nm, emission wavelength of 635 nm, gain of 90 and 15 flashes. 10 ul of 3-fold serial dilution of crude extract in 100 mM K2HPO4 pH7.2, 1 mM Na2EDTA, 5 mM DTT, 20% glycerol (v/v), 0.05% Tween 20 (v/v) was tested in the assay against 1% DMSO and 100 ppm herbicide B to determine the correct amount of crude extract to add to the assay to observe activity. 10 ul of the appropriate crude extract dilution was then tested in the fluorescent Protoporphyrinogen Oxidase assay against DMSO and 10-fold dose response of each compound (herbicides A to E) with a top rate of 100 ppm.
(§3) The percentage inhibition was calculated as the activity in the presence of one of four concentrations of each herbicide compound A to E (note that the compounds labelled as A to E are identified hereinabove in the relevant section of the description) as a percentage of the enzyme activity in DMSO (Table 5).

Assay [2] concerns the target T2, AtPPO1 S305L Y426M (SEQ ID NO.124) (Arabidopsis thaliana, UniProt P55826, S305L/Y426M).
T2 construct: made in house; host or cells: E. coli BL21 (DE3) hemG, crude extract
T2 sequence (P55826 35-537 S305L/Y426M): T1 sequence (P55826 35-537 S305L/Y361C/Y362F/Y426M/L479M) with C327Y, F328Y, M445L
The description is as above. The note with it: read-out: percentage inhibition. It is filed as biochemical. The method, then: as §1, §2, §3

Each structure is given as a SMILES string. Changes are numbered by the printed parent chain.

The inhibition is the relative decrease from the control value, in per cent. As for `C#CCN1C(=O)C(F)(F)Oc2cc(F)c(-n3c(=O)n(C)c(=S)n(C)c3=O)cc21` [Herbicide B, trifludimoxazin], in assay [1], the inhibition at 0.1 ppm is 100%, the inhibition at 1 ppm turned out to be 100%, the inhibition at 10 ppm is 100% and the inhibition at 100 ppm was found to be 100%. For the same molecule, in assay [2], the inhibition at 0.1 ppm was 100%, the inhibition at 1 ppm was 100%, the inhibition at 10 ppm came to 100% and the inhibition at 100 ppm was found to be 100%.

For the molecule `CCOC(=O)C1(C)CC(c2cc(-n3c(=O)cc(C(F)(F)F)n(C)c3=O)c(F)cc2Cl)=NO1` (stereo not shown) [Herbicide C, 3-(2-chloro-4-fluoro-5-(3-methyl-2,6-dioxo-4-trifluoromethyl-3,6-dihydropyrimidin-1(2H)-yl)phenyl)-5-methyl-4,5-dihydroisoxazole-5-carboxylic acid ethyl ester], in assay [1], the inhibition at 0.1 ppm was 19%, the inhibition at 1 ppm came out at 65%, the inhibition at 10 ppm is 99% and the inhibition at 100 ppm was found to be 100%. In addition, in assay [2], the inhibition at 0.1 ppm was 77%, the inhibition at 1 ppm was 88%, the inhibition at 10 ppm came to 100% and the inhibition at 100 ppm was 100%.

For the molecule `CCOC(=O)COc1ncccc1Oc1cc(-n2c(=O)cc(C(F)(F)F)n(C)c2=O)c(F)cc1Cl` [Herbicide A, epyrifenacil], in assay [1], the inhibition at 0.1 ppm amounted to 0%, the inhibition at 1 ppm turned out to be 40%, the inhibition at 10 ppm amounted to 83% and the inhibition at 100 ppm was 92%. Besides, in assay [2], the inhibition at 0.1 ppm was 34%, the inhibition at 1 ppm was 82%, the inhibition at 10 ppm came to 100% and the inhibition at 100 ppm amounted to 100%.

Take `CCOC(=O)[C@]1(C)CC(c2cc(-n3c(=O)n(C)c(=S)n(C)c3=O)c(F)cc2Cl)=NO1` [Herbicide D, ethyl (5S)-3-[2-chloro-5-(3,5-dimethyl-2,6-dioxo-4-thioxo-1,3,5-triazinan-1-yl)-4-fluoro-phenyl]-5-methyl-4H-isoxazole-5-carboxylate]: in assay [1], the inhibition at 0.1 ppm came out at 0%, the inhibition at 1 ppm was found to be 56%, the inhibition at 10 ppm came to 85% and the inhibition at 100 ppm turned out to be 100%. Moreover, in assay [2], the inhibition at 0.1 ppm came to 53%, the inhibition at 1 ppm was 85%, the inhibition at 10 ppm amounted to 100% and the inhibition at 100 ppm is 100%.

On to `CC(C)N(C)S(=O)(=O)NC(=O)c1cc(-n2c(=O)cc(C(F)(F)F)n(C)c2=O)c(F)cc1Cl` [Herbicide E, saflufenacil], for which, in assay [1], the inhibition at 0.1 ppm turned out to be 0%, the inhibition at 1 ppm is 39%, the inhibition at 10 ppm was found to be 80% and the inhibition at 100 ppm was found to be 99%. In addition, in assay [2], the inhibition at 0.1 ppm was determined as 38%, the inhibition at 1 ppm was determined as 78%, the inhibition at 10 ppm was determined as 100% and the inhibition at 100 ppm was found to be 96%.
